This is an account of results in the NIST ThermoML archive (doi:10.1021/je060336+).

± gives the expanded uncertainty stated by the source.

The conditions of this data set: Liquid.

As a reminder, the vapor or sublimation pressure is the equilibrium pressure above the liquid or solid. As for `CC(F)(F)F` [1,1,1-trifluoroethane], the “vapor or sublimation pressure” value is recorded as 1831 ± 14 kPa (313.15 K), 2302 ± 18 kPa (323.15 K), 2874 ± 22 kPa (333.15 K) and 3553 ± 28 kPa (343.15 K).
On to `CCCC` [butane], for which the “vapor or sublimation pressure” value by setting is: (313.15 K) 377 ± 3 kPa; (323.15 K) 495 ± 4 kPa; (333.15 K) 639 ± 5 kPa; (343.15 K) 810 ± 6 kPa; (353.15 K) 1012 ± 8 kPa; (363.15 K) 1250 ± 10 kPa.
